Laboratory results taken from article PMC6568410, “A scorpion venom peptide derivative BmKn‒22 with potent antibiofilm activity against Pseudomonas aeruginosa” (PLoS ONE, 2019).
Where no end group is shown, it is not given here.

How the values were obtained:
[1] = tested on: rhlI mRNA; experiment: qRT-PCR of quorum sensing-related gene rhlI; type: cell-based, Pseudomonas aeruginosa; details: 800 µM, 10 h
Experimental: (§1) The effects of BmKn‒22 peptide on the expression of quorum sensing‒related genes in P. aeruginosa PAO1 were assessed by qPCR. Briefly, bacterial suspension at approximately 10^7 CFU/mL was cultured in the presence or absence of the test peptide (800 μM, final concentration) at 37 ^OC for 10 h using a shaking incubator. After centrifugation at 4,500 rpm for 10 minutes, the bacterial cells were harvested and subsequently subjected to total RNA extraction using TRIzol® reagent (Invitrogen, USA) as per the manufacturer’s instruction. The concentration of the extracted RNA was measured using Nanodrop spectrophotometer (NanoDrop Technologies, USA). Thereafter, 1 μg of extracted RNA was reverse-transcribed into cDNA using Random Hexamer primer and RevertAid First Strand cDNA synthesis kit (Fermantas), which was amplified by real-time PCR. The primers for the genes lasI, lasR, RhlI, RhlR and 16S rRNA were used (Table 2). All primers were synthesized by the Integrated DNA Technology (IDT), Canada. The reaction mixture consisted of 1× AccuPower® 2X GreenStar™ qPCR Master Mix, 0.4 μmol/L each forward primer and reverse primer and 1 μL of cDNA in a final volume of 10 μL. Thermal cycles used was 95 ^OC for 2.5 min, followed by 40 cycles of 95 ^OC for 30 sec, 60 ^OC for 30 sec and 72 ^OC for 30 sec. The expression level of the target gene was normalized to 16S rRNA gene. Relative expression of the target genes was obtained from 2^‒ΔΔct.

[2] = tested on: P. aeruginosa PAO1; experiment: Growth assay, standard plate counts; type: cell-based, Pseudomonas aeruginosa; details: 800 µM, 24 h
Experimental: The effects of BmKn‒2 peptide and its derivatives on growth of P. aeruginosa PAO1 were carried out as described previously with some modifications. Bacterial suspension (10^6 CFU/mL) and the test peptides (800 μM, final concentration) were incubated at 37 ^OC at 150 rpm. Bacterial culture without the test peptides was used as the untreated control. After 24 h, bacterial concentration was evaluated. Cultures from each treatment were taken and 10-fold serial dilution was performed; 100 μL of each dilution was then spread on LB agar plates. Following incubation at 37°C for 24 h, the colonies were counted and expressed as log10 CFU/mL.

[3] = tested on: L929 mouse fibroblast cells; experiment: Cytotoxicity, MTT assay; type: cell-based; details: 800 µM, 24 h; for Cell viability (%): L929 cells
Experimental: The toxicity of the test peptides against L929 mouse fibroblast cells was assessed by 3-(4,5-dimethylthiazol-2-yl)-2,5-diphenyltetrazolium bromide (MTT) assay. L929 mouse fibroblast cells from American Type Culture Collection (ATCC, Manassas, VA, USA) were cultured in Dulbecco's Modified Eagle Medium (DMEM; HyClone, Utah, USA) supplemented with 10% fetal bovine serum (Gibco, South America), 10 mM 4-(2-hydroxyethyl)-1 piperazineethanesulfonic acid (HEPES; HyClone, Utah, USA), 2 mM L-glutamine (Gibco, Brazil) and 100 U/mL penicillin and 100 μg/ml streptomycin (Gibco, USA) in a 5% CO2 atmosphere at 37°C. L929 cells (2×10^4 cells/well) were seeded in 96-well plates (Nunc) and incubated overnight. The culture medium was discarded and replaced by 100 μL of fresh DMEM containing the test compounds (final concentration 800 μM). Cells without the test compounds served as untreated control. After 24 h incubation, 20 μL of MTT solution (5 mg/mL; Sigma, St. Louis, MO, USA) was added and incubated for 3 h. The culture supernatant was removed and 100 μL dimethyl sulfoxide was added to each well to dissolve the formazan crystals. The absorbance was measured at 540 nm on a microplate reader (BioTek Synergy HT). Percentage of cell viability was calculated according to the equation: (OD of treated cells/ OD of untreated cells) × 100.

[4] = tested on: rhlR mRNA; experiment: qRT-PCR of quorum sensing-related gene rhlR; type: cell-based, Pseudomonas aeruginosa; details: 800 µM, 10 h
Experimental: as §1

[5] = tested on: P. aeruginosa PAO1 established biofilms; experiment: Established (24 h-preformed) biofilm assay, crystal violet staining; type: cell-based, Pseudomonas aeruginosa
Experimental: Antibiofilm activity of the test peptides was also examined against established biofilms as follows. Aliquots of the P. aeruginosa PAO1 suspension adjusted to a final concentration of 10^6 CFU/mL were seeded into the wells of flat-bottomed 96-well microtiter plates (Nunc). Biofilms were established at 37°C for 24 h. After incubation, nonadherent planktonic cells were removed by gently washing the wells with sterile PBS pH 7.4. Preformed biofilms were then treated with the test peptides at concentrations of 200 ‒ 800 μM and incubated at 37°C for 24 h. Culture without the test peptides served as the untreated control. After the incubation, the test peptides were aspirated gently and the plates were rinsed twice with PBS pH 7.4. Biofilm biomass was subsequently quantified by 0.1% crystal violet staining as previously described.

[6] = normalized to 16S rRNA, 2^-ΔΔct, untreated control = 1, mean of 2 independent experiments in quadruplicate
[7] = compared with untreated control, result in words

FIGAIARLLSK [BmKn-22]
Relative mRNA expression, rhlI [1, 6]: 1.127
Relative mRNA expression, rhlI ([1]; Exp. 1): 0.929
Relative mRNA expression, rhlI ([1]; Exp. 2): 1.325
mRNA expression of rhlI ([1]; result in words): no alteration
Bacterial growth, Log10 CFU/mL ([2]; 37 °C, 150 rpm, plate counts, untreated control 9.183, mean of 3 independent experiments): 9.323 Log10 CFU/mL
effect on bacterial counts (growth) [2, 7]: no significant (P > 0.05) differences in bacterial counts
Bacterial growth, Log10 CFU/mL ([2]; Exp. 1 (untreated control 9.082)): 9.235 Log10 CFU/mL
Bacterial growth, Log10 CFU/mL ([2]; Exp. 2 (untreated control 9.198)): 9.292 Log10 CFU/mL
Bacterial growth, Log10 CFU/mL ([2]; Exp. 3 (untreated control 9.268)): 9.443 Log10 CFU/mL
effect on viability of L929 cells [3, 7]: low effects on cell viability
Cell viability (%) ([3]; Exp. 1): 108.407%
Cell viability (%) ([3]; Exp. 2): 75.218%
Cell viability (%) ([3]; Exp. 3): 94.787%
Relative mRNA expression, rhlR [4, 6]: 0.511
Relative mRNA expression, rhlR ([4]; Exp. 1): 0.408
Relative mRNA expression, rhlR ([4]; Exp. 2): 0.614
mRNA expression of rhlR ([4]; result in words): significantly (P < 0.05) decreased
Biofilm inhibition (%), preformed biofilm ([5]; 200 µM, Exp. 1): 30.458%
Biofilm inhibition (%), preformed biofilm ([5]; 200 µM, Exp. 2): 17.360%
Biofilm inhibition (%), preformed biofilm ([5]; 200 µM, Exp. 3): 22.328%
Biofilm inhibition (%), preformed biofilm ([5]; 400 µM, Exp. 1): 27.005%
Biofilm inhibition (%), preformed biofilm ([5]; 400 µM, Exp. 2): 32.202%
Biofilm inhibition (%), preformed biofilm ([5]; 400 µM, Exp. 3): 27.300%
Biofilm inhibition (%), preformed biofilm ([5]; 800 µM, Exp. 1): 44.831%
Biofilm inhibition (%), preformed biofilm ([5]; 800 µM, Exp. 2): 34.141%
Biofilm inhibition (%), preformed biofilm ([5]; 800 µM, Exp. 3): 53.943%
